In publication PMC5118709, “Identification of Polo-like kinase 1 interaction inhibitors using a novel cell-based assay” (Scientific Reports, 2016):
Values joined by “and” are separate entries in the source; they are usually repeats but may differ in a detail not shown here. Identical values can stand only once.

Tests used:
GST-PBD367-603 of Plk1 = GST-PBD367-603 of Plk1 (Homo sapiens, UniProt P53350); experiment: fluorescence polarization assay PBD-phosphopeptide; conditions: 50 μM
HeLa cells [1] = experiment: mitotic defect phenotypes by immunofluorescence; format: cell-based; conditions: 10 μM, 7 h
Experimental: HeLa cells were treated with these compounds along with the known PBD inhibitors PPG, TQ, Poloxin and the KD inhibitor BI2536 as controls, and then stained against α-Tubulin, pericentrin (a centrosome marker) and DNA (Fig. 2D). In all cases, there was a marked increase in the frequency of disorganized spindles compared with DMSO-treated control cells. This is expected as Plk1 plays multiple roles in spindle assembly and maintenance. […] Cpd 69, an analog of compound 122, induced a similar phenotype at lower concentrations (data not shown). This phenotype was not seen after treatment with BI2536.
For the mitotic defect phenotypes, 25 200 HeLa cells were plated on poly-L-lysine coated round cover slips in 24-well plates. The day after, cells were treated for 7 hours, and then washed with PHEM buffer at 37 °C before fixation in PHEM buffer containing 4% formaldehyde for 20 minutes at 37 °C. Cells were washed three times with TBS-tween 0.1% and plate was kept overnight at 4 °C. Next steps were followed as previously described except that coverslips were incubated in a dark wet chamber with antibodies. Anti-pericentrin (diluted 1:1000; Abcam), anti-α-tubulin DM1A (diluted 1:500; Sigma-Aldrich), Alexa Fluor 488 anti-rabbit and Texas-Red anti-mouse (diluted 1:200; Invitrogen) were used. Coverslips were mounted on slide using Vectashield media containing DAPI (Vector Laboratories).
Images shown in Fig. 2D were acquired on an AxioImager microscope (Carl Zeiss) with a 100x oil objective (NA 1.4 DICIII) and an AxioCam HRM camera (Carl Zeiss) using AxioVision software (Carl Zeiss).

Plk1-Map interaction [2] = biological target: T1, Plk1-Map interaction (Homo sapiens, UniProt P53350); experiment: BRET Plk1-Map, stable HEK293T Plk1-Luc/GFP-Map cell line; format: cell-based; set-up: cDNAs for the human full length Plk1; expressed in transfected cells
T1 sequence (P53350 whole entry): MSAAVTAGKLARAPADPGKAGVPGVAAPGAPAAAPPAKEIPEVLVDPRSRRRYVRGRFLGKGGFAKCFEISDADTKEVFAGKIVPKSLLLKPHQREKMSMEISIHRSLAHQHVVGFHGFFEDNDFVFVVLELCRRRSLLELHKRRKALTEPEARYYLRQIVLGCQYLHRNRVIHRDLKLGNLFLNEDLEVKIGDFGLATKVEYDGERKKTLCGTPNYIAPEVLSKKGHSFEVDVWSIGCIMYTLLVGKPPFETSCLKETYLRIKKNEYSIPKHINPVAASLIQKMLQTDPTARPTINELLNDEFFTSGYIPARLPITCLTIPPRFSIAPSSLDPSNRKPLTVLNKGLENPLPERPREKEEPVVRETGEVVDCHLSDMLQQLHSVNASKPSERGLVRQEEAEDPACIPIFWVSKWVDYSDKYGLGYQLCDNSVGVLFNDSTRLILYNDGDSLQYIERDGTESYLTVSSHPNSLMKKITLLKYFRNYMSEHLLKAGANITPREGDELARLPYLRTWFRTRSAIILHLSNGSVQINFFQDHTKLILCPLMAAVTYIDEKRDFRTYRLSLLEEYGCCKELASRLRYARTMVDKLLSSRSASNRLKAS
Source text: To develop a cell-based assay for the identification of Plk1 interaction inhibitors, we used Bioluminescence Resonance Energy Transfer (BRET)[42][43]. The assay monitors the interaction in HEK293T cells between Plk1 and Map205, a protein that we previously identified as an interactor of Drosophila Polo (Plk1 ortholog) on its PBD[44]. Although no ortholog of Drosophila Map205 has been found in vertebrates, this protein robustly interacts with vertebrate Plk1. […] Importantly, crystallography with zebrafish Plk1 has recently shown that Map205 nevertheless docks in the canonical phosphopeptide binding site of the PBD, with the natural phospho-mimetic Glu314 residue (Fig. 1A)[45]. In our assay, human Plk1 and a fragment of Drosophila Map205 (Map205_254-416 = Map) are respectively fused to Renilla luciferase II (Luc) and GFP10 (GFP), giving rise to energy transfer when the proteins are in close proximity (Fig. 1B). […] All combinations of Plk1 and Map tagged with Luc and GFP were tested (Supplementary Fig. S1). The Plk1-Luc/GFP-Map combination was selected because it yielded the highest BRET dynamic window. We then generated clonal stable cell lines co-expressing these two fusion proteins. These cell lines behaved very similarly to each other in BRET, and we selected one line that gave a high and reproducible BRET signal, with a Z′ score of 0.78, indicative of a robust assay for the purpose of a chemical screen (Supplementary Fig. S1).
(§1) We used our cell-based assay to screen a library of 112 983 compounds available in-house at IRIC’s High-Throughput Screening (HTS) platform (see Materials & Methods). Compounds were tested on cells in 384-well plates at concentrations between 10 μM and 25 μM, depending on their concentration in the original stocks solutions. BRET readings were taken 2 hours after treatment. Results obtained show a tight, close to normal distribution centered around zero inhibition relative to DMSO-treated controls (Fig. 1D). Compounds inducing at least 30% BRET inhibition were selected. From these, auto-fluorescent compounds and those that induced more than 90% reduction in RLucII luminescence were removed, leaving 800 primary hits, that we then re-tested using the same assay. In parallel, we tested these compounds in a control BRET assay for an unrelated pair of interacting proteins (BRAF-CRAF[46]) to exclude false-positive compounds that could reduce the BRET signal by interfering with light or by modifying the activity of GFP or Luc.
For BRET on transiently transfected cells, 48 hours after the transfection, medium was removed, cells were washed twice with PBS, and then Tyrode solution (140 mM NaCl, 2.7 mM KCl, 12 mM NaHCO3, 5.6 mM D-glucose, 0.49 mM MgCl2, 0.37 mM NaH2PO4, 25 mM HEPES, pH 7.4, where 1 mM CaCl2 was freshly added) was added to the cells. Total fluorescence was first measured using a FlexStation II microplate reader (Molecular Devices), where the GFP10 was excited at 400 nm and read at 510 nm. Then, cells were treated for 5 minutes with 2.5 μM coelenterazine 400a (Gold Technology) before reading BRET2 using the Mithras LB940 microplate reader (Berthold Technologies). BRET2 signal corresponds to the light emitted by the GFP10 acceptor constructs (515 nm ± 20 nm) divided by the light emitted by the RlucII donor constructs (400 nm ± 70 nm). Net BRET2 was calculated by subtracting the background BRET ratio of the RLucII plasmid alone from the BRET ratio obtained by the two BRET partners. The Net BRET2 was plotted according to the GFP10/RLucII ratio, which was obtained by dividing the total fluorescence by the RLucII emission.
For the high throughput chemical screen, cells were amplified and frozen as multiple 1 ml aliquots containing 25 millions of stable HEK293T Plk1-Luc/GFP-Map cells to ensure that cells at the same passage number are used during the screen. […] Five days later, cells were counted and re-suspended in Tyrode solution. […]

Plk1-Map interaction [3] = biological target: T1, Plk1-Map interaction; experiment: LUMIER co-immunoprecipitation assay Plk1-Map
CRAF-BRAF = biological target: T2, CRAF-BRAF (Homo sapiens, UniProt P04049+P15056); experiment: control BRET CRAF-BRAF (transient); format: cell-based
T2 construct: expressed in transfected cells; host or cells: HEK293T, transient transfection with PEI
T2 sequence (P04049 whole entry): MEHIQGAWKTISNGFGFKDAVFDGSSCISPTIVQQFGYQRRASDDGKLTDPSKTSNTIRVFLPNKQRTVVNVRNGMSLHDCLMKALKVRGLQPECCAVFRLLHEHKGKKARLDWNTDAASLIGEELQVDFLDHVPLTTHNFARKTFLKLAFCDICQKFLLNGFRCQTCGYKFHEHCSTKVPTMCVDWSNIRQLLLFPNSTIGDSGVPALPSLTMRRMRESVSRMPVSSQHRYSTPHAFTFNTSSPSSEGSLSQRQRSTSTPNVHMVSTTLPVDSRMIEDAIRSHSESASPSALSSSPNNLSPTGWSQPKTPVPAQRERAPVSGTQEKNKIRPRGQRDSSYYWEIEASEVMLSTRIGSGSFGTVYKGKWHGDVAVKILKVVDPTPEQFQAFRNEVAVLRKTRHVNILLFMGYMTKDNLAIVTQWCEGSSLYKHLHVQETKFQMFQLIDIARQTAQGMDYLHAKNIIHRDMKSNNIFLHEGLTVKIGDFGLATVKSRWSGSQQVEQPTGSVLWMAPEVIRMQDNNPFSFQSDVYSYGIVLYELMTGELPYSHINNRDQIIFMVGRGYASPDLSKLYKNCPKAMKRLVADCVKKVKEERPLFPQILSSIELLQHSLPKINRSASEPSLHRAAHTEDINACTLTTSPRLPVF
T2 sequence (P15056 whole entry): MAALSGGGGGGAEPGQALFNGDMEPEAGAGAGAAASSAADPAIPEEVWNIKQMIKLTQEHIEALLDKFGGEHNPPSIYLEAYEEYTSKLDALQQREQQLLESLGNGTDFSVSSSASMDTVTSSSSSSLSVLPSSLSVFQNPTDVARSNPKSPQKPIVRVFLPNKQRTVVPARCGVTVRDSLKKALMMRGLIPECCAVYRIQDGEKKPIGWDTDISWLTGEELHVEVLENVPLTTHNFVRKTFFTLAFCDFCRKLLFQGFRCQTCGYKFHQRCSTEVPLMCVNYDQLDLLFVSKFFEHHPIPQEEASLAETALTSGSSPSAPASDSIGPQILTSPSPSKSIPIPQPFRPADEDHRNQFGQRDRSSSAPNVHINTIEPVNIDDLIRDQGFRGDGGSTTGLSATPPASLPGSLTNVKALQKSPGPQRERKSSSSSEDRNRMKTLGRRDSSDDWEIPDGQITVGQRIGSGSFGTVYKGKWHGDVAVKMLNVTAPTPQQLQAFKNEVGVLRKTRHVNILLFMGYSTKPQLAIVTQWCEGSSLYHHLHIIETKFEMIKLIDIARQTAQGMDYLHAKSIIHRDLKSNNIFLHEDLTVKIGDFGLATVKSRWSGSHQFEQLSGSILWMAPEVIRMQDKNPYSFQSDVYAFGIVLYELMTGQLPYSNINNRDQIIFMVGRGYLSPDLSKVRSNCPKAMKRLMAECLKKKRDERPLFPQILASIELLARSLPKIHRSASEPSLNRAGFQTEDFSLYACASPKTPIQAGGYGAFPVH
Experimental: as §1
(§2) For the confirmation screen, the same procedure as for the primary screen was followed, except that HEK293T cells were also seeded at 6.25 millions of cells per simple CellStack on day 1 for transient transfections. These cells were transfected on day 3 with Luc-Map (5 μg) and Plk1-GFP (25 μg) pIRESHyg3 plasmids using polyethylenimine (PEI). To identify false-positives compounds, Luc-CRAF (4 μg) and GFP-BRAF (20 μg) plasmids were also transfected with PEI following the published procedure.

Plk1-Map interaction [4] = biological target: T1, Plk1-Map interaction; experiment: BRET Plk1-Map, transient Luc-Map/Plk1-GFP in HEK293T; format: cell-based; set-up: cDNAs for the human full length Plk1; expressed in transfected cells; conditions: confirmation screen
Experimental: as §2

HEK293T cells = experiment: mitotic index assay (phospho-Histone H3) in HEK293T cells
Experimental: For the mitotic index assay, 4000 HeLa cells or 5000 HEK293T cells per well were seeded in a 96-well plate. The day after, cells were incubated for 7 hours with different compounds, and then fixed by adding formaldehyde (4% final concentration) directly to each well. Plates were incubated 20 minutes at 37 °C, and then wells were rinsed three times with TBS-Tween 0.1%. A 1 hour block with PHEM buffer (60 mM Pipes, 25 mM HEPES, 10 mM EGTA, 4 mM MgSO4, pH 6.9) containing 2% BSA and 0.1% triton was performed, before addition of the primary antibody to the wells. The anti-phospho-Histone H3 (Ser10) antibody (EMD Millipore) was diluted 1:300 in PHEM buffer containing 2% BSA and added to the wells for 2 hours at room temperature in the dark. […] Plates were incubated for 1h 30 at room temperature in the dark, and then wells were washed 3 times with TBS-Tween 0.1%. A solution of Mowiol containing DAPI was finally added to the wells. Plates were kept at 4 °C in the dark until imaging using the 20x objective on an Operetta system (Perkin Elmer inc.). The mitotic index, corresponding to the percentage of pHH3 positive cells relative to the total number of DAPI-stained cells detected was calculated by the Operetta using the Harmony 3.5 software. Experiments were done in triplicates.

HeLa cells [5] = experiment: mitotic index assay (phospho-Histone H3) in HeLa cells; format: cell-based
[6] = reaction with amino-protected amino acids (LC-MS); conditions: room temperature
Experimental: Vinyl sulfones are reactive species that can alkylate substrates as a result of a nucleophilic attack on the distal carbon of the vinyl group. To evaluate the potential of Cpd 161 (vinyl sulfone) to react with proteins, we tested its reaction with nucleophilic amino acid side chains groups. […] To test whether Cpd 161 could react covalently with the PBD, we incubated them together and examined the molecular mass of the protein by SDS-PAGE (Fig. 7). […] Consistent with this idea, the extent of the shift depended on the concentration of Cpd 161 used (Fig. 7B) and also on the incubation time (Fig. 7C).
To a stirred solution of electrophile (0.02 mmol) and amino acid (1- 1.5eq) in DMF (0.3 ml) were added a few drops of a diluted aqueous solution of sodium bicarbonate. The reaction was monitored using an Agilent 6120 Quadrupole LC/MS system (Agilent Technologies). In all cases, the molecular ion of the product was observed.

GST-PBD367-603 of Plk1, sequence (P53350 367-603): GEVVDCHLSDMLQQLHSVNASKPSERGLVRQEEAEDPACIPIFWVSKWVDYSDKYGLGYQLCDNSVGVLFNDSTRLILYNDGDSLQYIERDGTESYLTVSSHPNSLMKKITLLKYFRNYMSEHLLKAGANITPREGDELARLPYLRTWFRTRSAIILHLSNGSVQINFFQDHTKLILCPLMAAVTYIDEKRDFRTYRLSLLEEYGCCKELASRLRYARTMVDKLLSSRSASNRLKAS

COc1ccc(-c2oc3ccccc3c(=O)c2OS(=O)(=O)c2cc(OC)ccc2OC)cc1 [Cpd 69]
activity in the FP assay (GST-PBD367-603 of Plk1): little or no activity
2 > pericentrin foci (percentage of cells) (HeLa cells [1]): 2 ± 2%
Disorganized spindles (percentage of cells) (HeLa cells [1]): 100 ± 0%
Primary screen Plk1-Map (stable) % Inihibition (Plk1-Map interaction [2]; 10-25 μM, 2 h): 77.38%
Primary screen Plk1-Map (stable) % Quench RLuc (Plk1-Map interaction [2]; 10-25 μM, 2 h): 86.93%
Confirmation Plk1-Map (stable) % Inihibition (Plk1-Map interaction [2]; confirmation screen): 49.85%
Confirmation Plk1-Map (stable) % Quench RLuc (Plk1-Map interaction [2]; confirmation screen): 91.91%
Average-Beads (mean luminescence) (Plk1-Map interaction [3]; 10-25 μM, 2 h): 281,985
Co-IP Values relative to top in plate column = 1 (Plk1-Map interaction [3]; 10-25 μM, 2 h): 0.866
effect on the Plk1-Map interaction in co-IP (Plk1-Map interaction [3]; 10-25 μM, 2 h): no effect
Relative Luminescence Unit (Plk1-Map interaction [3]; mean divided by maximum mean of the compounds): 0.866
Luminescence on beads, duplicate wells (Plk1-Map interaction [3]; raw data, 10-25 μM, 2 h): 232,744 and 331,226
Primary screen CRAF-BRAF (transient) % Inihibition (CRAF-BRAF; 10-25 μM): 18.32%
Primary screen CRAF-BRAF (transient) % Quench RLuc (CRAF-BRAF; 10-25 μM): 72.42%
Confirmation CRAF-BRAF (transient) % Inihibition (CRAF-BRAF; confirmation screen): 7.18%
Confirmation CRAF-BRAF (transient) % Quench RLuc (CRAF-BRAF; confirmation screen): 67.88%
Confirmation Plk1-Map (transient) % Inihibition (Plk1-Map interaction [4]): -0.61%
Confirmation Plk1-Map (transient) % Quench RLuc (Plk1-Map interaction [4]): 62.73%
effect on mitotic index, purchased compounds (HEK293T cells; 1 μM): small increase
effect on mitotic index, purchased compounds (HEK293T cells; 10 μM): significant increase
effect on mitotic index, purchased compounds (HeLa cells [5]; 10 μM): significant increase
Mitotic index (%) (HeLa cells [5]; 10-25 μM, 7 h): 30.13%

CC1=CC(=O)C(C(C)C)=C/C1=N\OC(=O)c1ccccc1C [Poloxin]
2 > pericentrin foci (percentage of cells) (HeLa cells [1]): 27 ± 21%
Disorganized spindles (percentage of cells) (HeLa cells [1]): 61 ± 14%
mitotic index (HeLa cells [5]; 25 μM): around 20%
time to completion of reaction with amino-protected histidine [6]: approximately 10 minutes
time to completion of reaction with amino-protected lysine [6]: approximately 10 minutes
